Measured values taken from ChEMBL document CHEMBL1201862, “PubChem BioAssay data set” (2004).
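Interpolation was linear, between the two tested concentrations surrounding the appropriate level; five concentrations were tested over 48 hours in 96-well plates. At the GI50, growth is halved.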 Active and inactive are the calls of the source. Rule as the data show it: active = GI50 up to about 1.1 µM and inactive = higher.

Columns and labels:
Assay in all cases: DTP human tumour cell line panel, 48 h
[1] = system: KM12
[2] = system: UACC-257
[3] = system: HOP-62
[4] = system: SNB-19
[5] = system: M14
[6] = system: SNB-78
[7] = system: RPMI-8226
[8] = system: A549
[9] = system: OVCAR-3
[10] = system: ACHN
[11] = system: SF-295
[12] = system: XF498
[13] = system: 786-0
[14] = system: HL-60
[15] = system: UACC-62
[16] = system: NCI-H460
[17] = system: SNB-75
[18] = system: SK-MEL-28
[19] = system: M19-MEL
[20] = system: OVCAR-5
[21] = system: SR
[22] = system: NCI-H23
[23] = system: TK-10
[24] = system: MOLT-4
[25] = system: SW-620
[26] = system: COLO 205
[27] = system: KM-20L2
[28] = system: NCI-H522
[29] = system: SK-OV-3
[30] = system: LXFL 529
[31] = system: NCI-H226
[32] = system: HT-29
[33] = system: DMS-273
[34] = system: HCT-15
[35] = system: OVCAR-4
[36] = system: U-251
[37] = system: UO-31
[38] = system: SN12C
[39] = system: HCC 2998
[40] = system: LOX IMVI
[41] = system: HOP-92
[42] = system: SF-268
[43] = system: SF-539
[44] = system: DLD-1
[45] = system: HCT-116
[46] = system: OVCAR-8
[47] = system: CAKI-1
[48] = system: RXF 631
[49] = system: SK-MEL-2
[50] = system: IGROV-1
[51] = system: K562
[52] = system: Malme-3M
[53] = system: CCRF-CEM
[54] = system: DMS-114
[55] = system: EKVX
[56] = system: A498
[57] = system: RXF 393
[58] = system: SK-MEL-5

Measured: GI50

CCOC(=O)C1=C(c2ccccc2)NC(c2ccccc2)=C(C(=O)OCC)c2c1c(=O)cc[nH]c2=O
> 100 µM: [34]
inactive: [1] > 100 µM | [2] 99.8 µM | [3] > 100 µM | [4] > 100 µM | [5] > 100 µM | [6] 94 µM | [7] 53.1 µM | [8] > 100 µM | [9] > 100 µM | [10] 72.8 µM | [11] 86.7 µM | [12] > 100 µM | [13] > 100 µM | [14] > 100 µM | [15] 26.4 µM | [16] > 100 µM | [17] > 100 µM | [18] 66.1 µM | [19] > 100 µM | [20] > 100 µM | [21] 83.8 µM | [22] 79.4 µM | [23] > 100 µM | [24] 63.1 µM | [25] > 100 µM | [26] > 100 µM | [27] > 100 µM | [28] 84.1 µM | [29] > 100 µM | [30] > 100 µM | [31] > 100 µM | [32] 74.8 µM | [33] > 100 µM | [35] 92.3 µM | [36] > 100 µM | [37] > 100 µM | [38] > 100 µM | [39] > 100 µM | [40] 62.1 µM | [41] 71.6 µM | [42] > 100 µM | [43] > 100 µM | [44] > 100 µM | [45] > 100 µM | [46] > 100 µM | [47] > 100 µM | [48] 34.7 µM | [49] > 100 µM | [50] > 100 µM | [51] 39.9 µM | [52] > 100 µM

O=C1O[C@@H](c2ccccc2)C[C@H]1CN1CCOCC1
> 100 µM: [34]
inactive: [1] 89.5 µM | [2] > 100 µM | [3] > 100 µM | [5] > 100 µM | [6] > 100 µM | [7] 14.6 µM | [8] > 100 µM | [9] > 100 µM | [10] > 100 µM | [11] > 100 µM | [12] 81.8 µM | [13] 28.2 µM | [53] 33.7 µM | [54] 67 µM | [14] 24.6 µM | [15] > 100 µM | [16] > 100 µM | [17] 51.9 µM | [18] > 100 µM | [20] > 100 µM | [22] 17 µM | [23] 84.9 µM | [24] 33 µM | [25] > 100 µM | [26] 97.5 µM | [27] > 100 µM | [28] > 100 µM | [29] 68.1 µM | [30] > 100 µM | [31] 43.6 µM | [55] > 100 µM | [32] > 100 µM | [35] > 100 µM | [36] > 100 µM | [37] > 100 µM | [38] > 100 µM | [39] > 100 µM | [40] > 100 µM | [41] > 100 µM | [42] > 100 µM | [43] > 100 µM | [44] > 100 µM | [46] > 100 µM | [56] > 100 µM | [57] > 100 µM | [47] 20.4 µM | [48] > 100 µM | [49] > 100 µM | [50] > 100 µM | [51] 40.7 µM | [52] > 100 µM | [58] > 100 µM
